Patent US5573772A, “Methods for protecting tissues and organs from ischemic damage” (priority 1994, dated 1996)
“Also recorded” adds a separate entry of the source.

Tested on: isolated rabbit hearts
Assay: Hemodynamic responses (heart rate, coronary flow, LVDP, AV conduction) in isolated perfused rabbit hearts, Example 1
Design: species or system rabbit (New Zealand white)
Settings: for Hemodynamics, treatment alone: SPT or DPCPX alone
Procedure: These solutions were then diluted in Krebs buffer to the final concentration just before the experiments started. New Zealand white rabbits of either sex, between 1.4-2.4 kg, were anesthetized with intravenous sodium pentobarbital (30 mg/kg). The neck was opened and a tracheotomy was performed. The rabbits were ventilated with 100% oxygen via a positive pressure respirator (MD industries, Mobile, Ala.). Ventilation rate was 30-35 breaths per minute, and tidal volume was approximately 15 ml. A left thoracotomy was performed in the fourth intercostal space and pericardium was opened to expose the heart. A 2-0 silk suture with an RB taper needle was passed around a branch of the left coronary artery, and the end of the silk were threaded through a small vinyl tube to form a snare. The heads were quickly excised and mounted on a Langendorff apparatus and perfused at constant pressure with Krebs buffer containing (in mM) 118.5 NaCl, 4.7 KCl, 1.2 MgSO4, 1.2 K2 PO4, 24.3 NaHCO3, 2.5 CaCl2 and 10 glucose. […] The temperature of the perfusate was maintained at 37° C. The perfusion pressure was kept at 75 mm Hg. Pacing electrodes were placed on the right atrium and all hearts were paced at 200 beats/minute with pulses of 5 volts and 4 msec duration to keep the heart rate constant. A fluid-filled latex balloon connected to a transducer via PE240 tubing was inserted into the left ventricle. Balloon volume was adjusted to set the left ventricular diastolic pressure at 10 mm Hg at the beginning of the experiment. Total coronary artery flow was measured by timed collection of buffer from the chamber into a graduated cylinder. Regional ischemia was effected by pulling the snare tight and clamping the tube with a hemostat. Global ischemia was performed by clamping the inflow tubing of the Langendorff apparatus. Reperfusion was achieved by releasing the restriction. All hearts were allowed to equilibrate for 20 minutes before the experiments were started. Heart rate (HR), coronary flow (CF) and left ventricular developed pressure (LVDP) were recorded at the point just before and at the end of each treatment with the pacing momentarily turned off. The animals were divided into 10 groups. The hearts in all groups were subjected to 30 minutes of coronary branch occlusion followed by 120 minutes of reperfusion. Control group (CON, n=10) only experienced the above-mentioned 30 minutes of regional ischemia while the preconditioned group (PC, n=12) received an additional 5 minutes of global ischemia plus 10 minutes of reperfusion prior to the 30 minute occlusion. In the adenosine group (ADO, n=6) and the APNEA group (APNEA, n=5), the hearts were exposed to 10 uM adenosine and 50 nM APNEA respectively, for 5 minutes as a substitute for ischemic preconditioning. The drug was allowed to washout for 10 minutes before the 30 minute ischemia was started. In groups receiving SPT, the blocker was included in the perfusate for 15 minutes at 100 uM starting 5 minutes before the exposure of ADO (ADO-SPT group, n=6) or APNEA (APNEA-SPT group, n=5) or 5 minutes before and after 5 minutes of preconditioning ischemia (PC-SPT group, n=5). […] All results are expressed as group mean±SEM. The differences among groups was determined by a one-way analysis of variance with a Newman-Keuls post hoc test. A value of p<0.05 was considered to be significant. In order to ensure that the adenosinergic agents were active at the concentrations employed, hemodynamic responses were measured in a separate group of animals who experienced similar surgery described above except the coronary snare was not installed and therefore the second group of animals were not exposed to ischemia. The hearts were quickly excised and mounted on the Langendorff apparatus and perfused with Krebs buffer. The depressant effect of adenosine on atrioventricular (AV) conduction time was measured at a constant rate of atrial pacing, as an index of A 1-mediated activity. […]

`Nc1ncnc2c1ncn2[C@@H]1O[C@H](CO)[C@@H](O)[C@H]1O` [ADO, Adenosine] was tested, and the “HR and CF effects of ADO after washout” value (10 minutes of washout) was “completely disappeared”, the “Coronary flow (CF) after infusion” value (ADO 10 uM, 5 minutes, increased from 7.6±0.6 ml/g/min) was 10.3 ± 0.8 mL/g/min and the “Heart rate (HR) after infusion” value (ADO 10 uM, 5 minutes, significantly decreased from 176±8 beats/min) was 149±6 beats/minutes.

With `Nc1ccc(CCNc2ncnc3c2ncn3[C@@H]2O[C@H](CO)[C@@H](O)[C@H]2O)cc1` [APNEA, N^6-(2-(4-aminophenyl)ethyl) adenosine] the “Alteration of HR, CF or LVDP” value (APNEA 50 nM) was “did not significantly alter HR, CF or LVDP” and the “Activation of A1 or A2 adenosine receptors” value (APNEA 50 nM, inferred from hemodynamics) was “neither the A1 nor A2 adenosine receptors are activated”.

In the case of `CCCn1c(=O)c2[nH]c(C3CCCC3)nc2n(CCC)c1=O` [DPCPX, 8-cyclopentyl-1,3-dipropylxanthine], the “Blockade of adenosine's effect on heart rate” value (DPCPX 200 nM vs ADO) is reported as “eliminated the decrease in HR; also recorded: entirely blocked; also recorded: completely blocked”, the “Effect on increase in CF from ADO infusion” value (DPCPX 200 nM vs ADO) is reported as “did not affect the increase in CF” and the “Hemodynamics, treatment alone” value is reported as “only slightly affected”.

`Cn1c(=O)c2[nH]c(-c3ccc(S(=O)(=O)O)cc3)nc2n(C)c1=O` [SPT, 8-(p-Sulfophenyl)-theophylline] was tested, and the “Blockade of CF increase from ADO infusion” value (SPT 100 uM vs ADO) was “abolished”, the “Blockade of HR decrease from ADO infusion” value (SPT 100 uM vs ADO) was “abolished” and the “Hemodynamics, treatment alone” value was “only slightly affected”.
